{
  "source": "ChEMBL document CHEMBL3286203",
  "about": "“Reactive oxygen species (ROS) inducible DNA cross-linking agents and their effect on cancer cells and normal lymphocytes” (J Med Chem, 2014)",
  "key": {"CLL": {"test_system": "CLL", "assay": "Induction of apoptosis in human CLL cells at 10 uM after 24 hrs by DCDFA assay in presence of NAC", "assay_type": "functional, cell-based"}, "[1]": {"assay": "1-Octanol-PBS partition coefficient, log P of the compound", "assay_type": "physicochemical"}},
  "note": "Calls of active or inactive are those of the source. The calls are words filed in the database; no cut-off is given here.",
  "data": [
    {"smiles": "CC1(C)OB(c2ccc(N(CCCl)CCBr)cc2)OC1(C)C", "values": [
      {"measurement": "Activity", "setting": "CLL", "value": "inactive"}
    ]},
    {"smiles": "CC1(C)OB(c2ccc(N(CCCl)CCCl)cc2)OC1(C)C", "values": [
      {"measurement": "logP", "setting": "[1]", "value": 2.8}
    ]}
  ]
}
